Data published in patent US20150119601A1, “MONOFUNCTIONAL MCR + 3-HP DEHYDROGENASE” (OPX Biotechnologies, Inc., priority 2013, published 2015).
Where two headings read alike, the source gives them in different places.

Key:
E. coli ACCase = E. coli ACCase (Escherichia coli, UniProt P0A9Q5+P0ABD5+P0ABD8+P24182); conditions: for decrease of ACCase enzyme activity: relative to control (FIG. 4); for inhibition of E. coli ACCase by the salts: FIG. 4
Method: Levels of greater than 0.66M (60 g/L) are expected to be present for commercially viable commercial production of 3-HP.
Each gene was amplified by PCRs with Pfu Ultra II HS using the manufacturer's instructions, and the PCR products were purified using the Zymo PCR Cleanup kit. Concentrations of products were measured using the Nanodrop spectophotometer. The Gibson Assembly kit (NEB) was used to construct plasmids expressing the ACCase subunit genes as directed by the manufacturer. The effect of NH4-3-HP and NH4Cl on H. elongata ACCase was tested and compared to the E. coli ACCase.

E. coli strains = experiment: Growth inhibition of E. coli strains by 3-HP; assay type: cell-based; conditions: E. coli strains grown in the presence of 3-HP
H. elongata ACCase = experiment: Salt effect on H. elongata ACCase compared to E. coli ACCase; assay type: biochemical, Halomonas elongata; conditions: FIG. 4
Method: Concentrations of products were measured using the Nanodrop spectophotometer.

[1] = salts of 3-HP levels near 0.66M

E. coli ACCase, sequence (P0ABD5 whole entry): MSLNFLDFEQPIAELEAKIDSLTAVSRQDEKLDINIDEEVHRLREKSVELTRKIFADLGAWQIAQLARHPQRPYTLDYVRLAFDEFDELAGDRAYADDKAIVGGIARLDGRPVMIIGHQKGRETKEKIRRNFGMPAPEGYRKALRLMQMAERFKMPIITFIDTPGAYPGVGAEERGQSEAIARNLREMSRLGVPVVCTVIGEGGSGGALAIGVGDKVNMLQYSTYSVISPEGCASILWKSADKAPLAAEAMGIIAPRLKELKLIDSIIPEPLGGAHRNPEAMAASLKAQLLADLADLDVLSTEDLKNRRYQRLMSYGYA
E. coli ACCase, sequence (P0A9Q5 whole entry): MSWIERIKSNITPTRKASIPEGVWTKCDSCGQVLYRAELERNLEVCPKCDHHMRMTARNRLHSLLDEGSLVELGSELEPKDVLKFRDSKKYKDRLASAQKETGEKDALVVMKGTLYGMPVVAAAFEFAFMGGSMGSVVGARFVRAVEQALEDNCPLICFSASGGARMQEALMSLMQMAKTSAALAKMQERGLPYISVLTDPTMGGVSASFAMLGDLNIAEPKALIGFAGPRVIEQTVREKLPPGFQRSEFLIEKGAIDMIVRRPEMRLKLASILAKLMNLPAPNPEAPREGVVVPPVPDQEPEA

Compound	decrease of ACCase enzyme activity (E. coli ACCase; salt levels near 0.44M)	3-HP level at which growth inhibition is demonstrated (E. coli strains)	inhibition of E. coli ACCase by the salts (E. coli ACCase)	decrease of ACCase enzyme activity (E. coli ACCase; [1])	effect of the salts on ACCase from the halophile (H. elongata ACCase)
[Cl-].[Na+] [NaCl]	approximately 80%	–	–	–	–
O=C(O)CCO [3-HP, 3-hydroxypropionic acid]	–	≥ 20 g/L	–	–	–
N.O=C(O)CCO [NH4-3-HP]	–	–	significantly inhibited	approximately 80%	less affected
O=C([O-])CCO.[Na+] [Na-3-HP]	–	–	–	approximately 80%	–
Cl.N [NH4Cl]	approximately 80%	–	significantly inhibited	–	less affected
